# Data as given in PubChem BioAssay AID608 (Sanford-Burnham Center for Chemical Genomics, 2007).
# The source made the active and inactive calls. No rule for the calls is given here.
# Target: Peptidyl-prolyl cis-trans isomerase FKBP1A (Homo sapiens) (UniProt P62942)
# Test: FKBP12 binders, biophysical, NMR detection (AID 608)
# Settings: NMR binding, purified FKBP12
# Chain of Peptidyl-prolyl cis-trans isomerase FKBP1A (Homo sapiens) (P62942 whole entry, looked up): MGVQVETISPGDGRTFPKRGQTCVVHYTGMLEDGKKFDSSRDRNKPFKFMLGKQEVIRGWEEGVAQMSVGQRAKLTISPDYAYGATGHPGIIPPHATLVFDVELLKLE
row,Structure (SMILES),Kd
1,C[n+]1cc2c3c(ccc2c2ccc4cc5c(cc4c21)OCO5)OCO3,> 4 mM (inactive)
2,CCOC(=O)Cc1cc(=O)n2[nH]c(C)cc2n1,> 4 mM (inactive)
3,CN(C)c1oc(-c2ccccc2Cl)nc1C#N,> 4 mM (inactive)
4,O=C(NN1CCOCC1)c1ccccc1F,> 4 mM (inactive)
5,Cc1c(C)n2c(SCC(N)=O)nnc2[nH]c1=O,> 4 mM (inactive)
6,CC1=CC2C(CC1=O)C(C)=CCC2C(C)C (centres undefined),> 4 mM (inactive)
7,NC(=O)Cn1nc2c3c(cccc3c1=O)-c1ccccc1-2,> 4 mM (inactive)
8,Nc1ccccc1C(=O)N1CCNC(=O)C1,> 4 mM (inactive)
9,OCCNc1nc2ccc(Cl)cc2[nH]1,> 4 mM (inactive)
10,Cc1ccccc1-n1c(N)cc(=O)[nH]c1=S,> 4 mM (inactive)
11,O=C(NCc1ccccn1)c1ccc(Br)s1,> 4 mM (inactive)
12,Cc1ccc(-c2cc(C(=O)N3CCCC3)no2)cc1,> 4 mM (inactive)
13,Nc1cccc(-n2cnnn2)c1,> 4 mM (inactive)
14,COc1cc(-c2coc3cc(O[C@@H]4O[C@H](CO)[C@@H](O)[C@H](O)[C@H]4O)c(OC)c(O)c3c2=O)cc(O)c1OC,> 4 mM (inactive)
15,CC(=O)Nc1nc(C)nc(-c2ccccc2)c1C(C)=O,> 4 mM (inactive)
16,CC(=O)Nc1cccc(-c2n[nH]c(=S)n2C)c1,> 4 mM (inactive)
17,Cc1nc(-c2ccccc2)sc1C(N)=O,> 4 mM (inactive)
18,O=c1cc(-c2ccccc2)oc2c(O)c(O)ccc12,> 4 mM (inactive)
19,COC(=O)[C@H]1[C@H]2C[C@H]3c4[nH]c5ccccc5c4CCN3C[C@H]2CC[C@@H]1O,> 4 mM (inactive)
20,Cc1cc(S(=O)(=O)N2CCOCC2)ccc1F,> 4 mM (inactive)
21,O=S(=O)(Nc1cc(Cl)cc(Cl)c1)N1CCCCC1,inactive

row,Structure (SMILES),Kd
1,Cc1ccc(NS(=O)(=O)N2CCOCC2)c(C)c1,> 4 mM (inactive)
2,CC(C)NC(=O)c1nc2ccccc2s1,> 4 mM (inactive)
3,O=C1CSC(c2ccccc2)N1 (centres undefined),> 4 mM (inactive)
4,O=C(Cc1cccs1)Nc1ccon1,> 4 mM (inactive)
5,Cc1ncc(CC(=O)O)s1,> 4 mM (inactive)
6,Nc1nc(-c2ccccc2)ns1,> 4 mM (inactive)
7,Nc1nc(SCC(=O)c2ccc([N+](=O)[O-])cc2)n[nH]1,> 4 mM (inactive)
8,Nc1nc2ncc(CNc3ccc(C(=O)N[C@@H](CCC(=O)O)C(=O)O)cc3)nc2c(=O)[nH]1,> 4 mM (inactive)
9,O=S1(=O)CCC(N2CCCCC2)C1 (centres undefined),> 4 mM (inactive)
10,O=C1CCCC(=O)N1c1ccc(O)cc1,> 4 mM (inactive)
11,CN1C(=O)c2ccc(C(=O)NC3CCCCC3)cc2C1=O,> 4 mM (inactive)
12,CCOC(=O)c1[nH]c(C)cc1C,> 4 mM (inactive)
13,COc1cccc(NC(=O)c2cnn(C)c2Cl)c1,> 4 mM (inactive)
14,CN(Cc1nc2ccccc2n1C)C(=O)c1cccs1,> 4 mM (inactive)
15,Cc1cc(C(=O)O)n[nH]1,> 4 mM (inactive)
16,C[N+](C)(C)CC(=O)[O-],> 4 mM (inactive)
17,Nc1cc(=O)[nH]c(SCC(=O)NCc2ccccc2)n1,> 4 mM (inactive)
18,O=C1CCNc2ccccc2N1,> 4 mM (inactive)
19,CC1(C)O[C@H]2CC(=O)OC[C@]23[C@H]2CC[C@@]4(C)[C@H](c5ccoc5)OC(=O)[C@H]5O[C@]54[C@]2(C)C(=O)C[C@@H]13,> 4 mM (inactive)
20,CN1CCN(Cc2cccnc2)CC1,> 4 mM (inactive)
21,CC(O)c1ccc(C(C)O)cc1 (centres undefined),> 4 mM (inactive)

row,Structure (SMILES),Kd
1,Nc1n[nH]c(=S)n1-c1ccccc1,> 4 mM (inactive)
2,COc1ccc(-c2ccc(=O)n(CC(N)=O)n2)cc1,> 4 mM (inactive)
3,OCc1ccccc1N1CCOCC1,> 4 mM (inactive)
4,COc1cc(C)c2c(c1C=O)Oc1c(c(C)c(O)c3c1C(O)OC3=O)OC2=O (centres undefined),> 4 mM (inactive)
5,CC(=O)O[C@H]1CC[C@@]2(C)C(C[C@@H](OC(C)=O)[C@@]3(C)C4=CC(=O)O[C@@H](c5ccoc5)[C@]4(C)CCC23)C1(C)C (some centres undefined),> 4 mM (inactive)
6,CCOc1ccc(-c2n[nH]c(=S)n2C)cc1,> 4 mM (inactive)
7,Cc1noc(C)c1C(=O)NCc1ccco1,> 4 mM (inactive)
8,CC1=C(/C=C/C(C)=C/C=C/C(C)=C/CO)C(C)(C)CCC1,> 4 mM (inactive)
9,CC12CN([N+](=O)[O-])C3(C(N)=O)CC1CCC23C (centres undefined),> 4 mM (inactive)
10,CN1CCC(N2CCCC(C(N)=O)C2)CC1 (centres undefined),> 4 mM (inactive)
11,COc1ccc(-c2oc3c(CC=C(C)C)c(O[C@@H]4O[C@H](CO)[C@@H](O)[C@H](O)[C@H]4O)cc(O)c3c(=O)c2O[C@@H]2O[C@@H](C)[C@H](O)[C@@H](O)[C@H]2O)cc1,> 4 mM (inactive)
12,Cc1cc(N)on1,> 4 mM (inactive)
13,O=[N+]([O-])c1cccc(-c2nnco2)c1,> 4 mM (inactive)
14,O=S1(=O)CCC(NCc2ccccc2)C1 (centres undefined),> 4 mM (inactive)
15,O=C(O)C(Cc1cnc[nH]1)N1C(=O)c2ccccc2C1=O (centres undefined),> 4 mM (inactive)
16,O=C1c2ccncc2C(=O)N1CO,> 4 mM (inactive)
17,O=C(O)CC1C(=O)NCCN1Cc1ccccc1 (centres undefined),> 4 mM (inactive)
18,COc1ccc(S(=O)(=O)N2CCOCC2)cc1C(C)C,> 4 mM (inactive)
19,CC1=CCCC2C1(C)CCC(C)C2(C)CC/C(C)=C/C[n+]1cn(C)c2c(N)ncnc21 (centres undefined),> 4 mM (inactive)
20,CC(=O)NC1=NN(c2ccccc2)C(=O)C1,> 4 mM (inactive)
21,CC(=O)O[C@H]1CC[C@@]2(C)C(CC[C@]3(C)C2C(=O)C=C2C4[C@@H](C)[C@H](C)CC[C@]4(C(=O)O)CC[C@]23C)C1(C)C (some centres undefined),> 4 mM (inactive)

row,Structure (SMILES),Kd
1,c1ccc(-c2noc(-c3ccc4c(c3)OCO4)n2)nc1,> 4 mM (inactive)
2,c1ccc(-n2cnnc2)nc1,> 4 mM (inactive)
3,COCC(=O)Nc1nc2ccc(C)cc2s1,> 4 mM (inactive)
4,CC1=C(C(=O)Nc2ccccc2)SCCO1,> 4 mM (inactive)
5,O=C(Nc1nnc(C(F)(F)F)s1)c1cccnc1,> 4 mM (inactive)
6,CC(=O)Oc1ccc(N2C(=O)C3C4C=CC(O4)C3C2=O)cc1 (centres undefined),> 4 mM (inactive)
7,NCc1cc2ccccc2s1,> 4 mM (inactive)
8,CSc1ccc(/C=c2\sc3ncnn3c2=O)cc1,> 4 mM (inactive)
9,Cn1cnnc1SCC(=O)Nc1nccs1,> 4 mM (inactive)
10,O=CN1CCN(C(=O)c2ccco2)CC1,> 4 mM (inactive)
11,CC(=O)N1N=C(N)SC1c1cccnc1 (centres undefined),> 4 mM (inactive)
12,COc1ccccc1CNc1nc2nc(C)cc(=O)n2[nH]1,> 4 mM (inactive)
13,COc1cccc(NC(=O)c2nc3ncccn3n2)c1,> 4 mM (inactive)
14,CS(=O)(=O)N1CCN(C(=O)c2ccccc2F)CC1,> 4 mM (inactive)
15,Cc1n[nH]c(=O)nc1N1CCN(c2ccccc2)CC1,> 4 mM (inactive)
16,CC(=O)Nc1cnn(Cc2ccc(Br)cc2)c1,> 4 mM (inactive)
17,CN1CCN(C(=O)c2cc(-c3ccccc3)on2)CC1,> 4 mM (inactive)
18,O=C(c1ccco1)N1C(=O)c2cccc3cccc1c23,> 4 mM (inactive)
19,CCOC(=O)c1c(C)cc(O)cc1O,> 4 mM (inactive)
20,O=C(O)c1ccnn1-c1ccccc1,> 4 mM (inactive)
21,OCc1ccncc1,> 4 mM (inactive)
